Columns and labels:
ALDH1 [1] = test: ALDH1 activity by resorufin propionate after treatment with inhibitors of ALDH 1 and 3 (HL-60 cells); assay type: cell-based; settings: inhibitor 8 μM, 6 hours, substrate 10 μM, one hour, P<0.001, FIG. 3
Procedure: In a 96-well plate, the HL-60 cells were inoculated at a concentration of 50.000 cells/well in RPMI-1640 medium without phenol red supplemented with L-Glutamine, Penicillin, Streptomycin and 10% Fetal Calf Serum (FCS) supplemented with dimethyl ampalthiolester (DIMATE) a specific inhibitor ALDH 1 and 3, morpholino ampal thiolester (MATE) a specific inhibitor of ALDH3, at concentrations of 8 μM respectively. After incubation for 6 hours, the substrates of the different ALDHs respectively resorufine propionate for ALDH1 and resorufin 4-diethylaminobenzoate for ALDH3, were added to a final concentration of 10 μM and then incubated for one hour at +37° C. The plate was then read using an Appliskan fluorescent plate reader (ex=560 nm, Em=600). The data were expressed in relative fluorescence units produced by an equal number of cells.

ALDH1A1 [2] = target: T1, ALDH1A1 (Homo sapiens, UniProt P00352); test: Double localization of resorufin propionate and ALDH1A1 by fluorescent microscopy (NCI-H522 cells); assay type: cell-based; settings: results not shown
T1 construct: purchased R&D Systems 5869-DH
T1 sequence (P00352 1-501): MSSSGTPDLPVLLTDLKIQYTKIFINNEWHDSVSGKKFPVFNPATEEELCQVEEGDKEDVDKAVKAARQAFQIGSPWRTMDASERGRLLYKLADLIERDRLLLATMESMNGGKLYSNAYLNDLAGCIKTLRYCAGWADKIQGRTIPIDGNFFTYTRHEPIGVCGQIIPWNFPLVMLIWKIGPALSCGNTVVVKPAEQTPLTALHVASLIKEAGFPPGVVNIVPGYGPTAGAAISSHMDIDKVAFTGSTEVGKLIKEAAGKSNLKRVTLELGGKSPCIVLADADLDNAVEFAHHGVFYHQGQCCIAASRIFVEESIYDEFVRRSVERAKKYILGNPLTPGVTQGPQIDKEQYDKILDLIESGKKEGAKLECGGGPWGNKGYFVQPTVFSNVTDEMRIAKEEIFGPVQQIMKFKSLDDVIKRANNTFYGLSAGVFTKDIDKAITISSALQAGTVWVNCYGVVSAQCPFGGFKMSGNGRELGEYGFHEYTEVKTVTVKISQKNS
Procedure: In a 24-well plate with microscope glasses previously washed with ethanol and then placed in the wells, the NCI-H522 cells were added at a cell concentration of 50.000 cells/well and then incubated in RPMI-1640 medium supplemented with L-Glutamine, Penicillin, Streptomycin and 10% Fetal Calf Serum overnight at +37° C. with a 5% CO2 atmosphere. The next day, the culture medium was changed with either DIMATE (5 μM) or the treatment vehicle and incubated for 6 hours. The cells were incubated for 30 minutes with culture medium supplemented with 10 μM of resorufin propionate, were then washed with cold PBS and then fixed with paraformaldehyde for 15 minutes at 37° C. The cells were permeabilized and saturated with PBS; 3% bovine albumin; 0.3% triton for 1 hour. The incubation was carried out with the anti-ALDH1A1 antibody (R&D System, MAB5869) for 1 hour at +37° C., then with an anti-mouse antibody coupled to fluorescein for 1 hour at room temperature in the dark, with PBS washes between the two steps. 3 washes with PBS were carried out then the microscopy glasses were mounted with an anti-decoloration support supplemented with DAPI. The cells were then observed under a microscope.

ALDH1 [3] = test: Identification of positive ALDH1 cells by flow cytometry via resorufin propionate; assay type: cell-based; settings: 15 μM Dimate, 5 hours, FIG. 4
Procedure: In a 60 mm Petri dish, 500.000 cells were incubated with RPMI-1640 medium supplemented with L-Glutamine, Penicillin, Streptomycin and 10% Fetal Calf Serum overnight at +37° C. with 5% atmosphere. CO2. For the negative control, the cells were taken up in medium supplemented with 15 μM of dimethyl ampal thiolester (Dimate), a specific inhibitor of ALDH1 and 3, then incubated for 5 hours at 37° C., 5% CO2. After trypsination, the cells were taken up in supplemented RPMI medium and centrifuged at 800 g for 5 minutes. The cell pellet was then taken up in fresh supplemented medium containing 10 μM of resorufin propionate, and then incubated for 1 hour in a polycarbonate tube at 37° C., 5% CO2. After incubation, the cells were then centrifuged and then washed in cold PBSx1 and finally taken up in […] of cold PBSx1. The solution was then analyzed by flow cytometry ([…] or red laser).

ALDH1A1 [4] = target: T1, ALDH1A1; test: Determination of the Km and Vmax of resorufine propionate with purified ALDH1A1; assay type: biochemical; settings: column ALDH1; relative to ALDH1
Procedure: (§1) In 50 μl of 0.1 M phosphate buffer pH6.00; 0.2 M KCl; 2 mM NADP+; 2 mM EDTA, a range of resorufine propionate was made: 250, 200, 150, 125, 100, 90, 80 and 70 μM and 0 μM. 50 μL of recombinant enzyme solution at 2.5 mU/well ALDH1A1 (R&D Sytems, 5869-DH), ALDH2 (abcam, ab87415) and ALDH3A1 (R&D Sytems, 6705-DH) was added. The incubation was carried out for 30 minutes at +37° C. and then the fluorescence reading was made (Em: 590 nm, Ex: 530 nm). The data were then converted to resorufin released (nM·min-1.μg^−1) and Km and Vmax were calculated using the Michaelis-Menten equation using GraphPad Prism 5.0.

ALDH2 = target: T2, ALDH2 (Homo sapiens, UniProt P05091); test: Determination of the Km and Vmax of resorufine propionate with purified ALDH2; assay type: biochemical; settings: column ALDH2; relative to ALDH1
T2 construct: purchased abcam ab87415
T2 sequence (P05091 18-517): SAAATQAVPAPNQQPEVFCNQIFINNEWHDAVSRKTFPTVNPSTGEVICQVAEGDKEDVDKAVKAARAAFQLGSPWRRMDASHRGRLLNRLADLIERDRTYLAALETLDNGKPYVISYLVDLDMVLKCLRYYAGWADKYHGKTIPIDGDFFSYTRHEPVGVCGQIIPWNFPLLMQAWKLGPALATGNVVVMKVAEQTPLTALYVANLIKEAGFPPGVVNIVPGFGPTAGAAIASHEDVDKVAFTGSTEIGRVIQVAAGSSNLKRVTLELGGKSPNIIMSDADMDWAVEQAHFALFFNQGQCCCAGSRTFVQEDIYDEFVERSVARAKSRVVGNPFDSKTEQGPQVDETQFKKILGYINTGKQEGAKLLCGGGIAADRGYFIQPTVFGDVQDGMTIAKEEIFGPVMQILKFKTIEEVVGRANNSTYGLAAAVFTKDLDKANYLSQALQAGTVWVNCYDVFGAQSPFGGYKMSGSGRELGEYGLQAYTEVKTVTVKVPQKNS
Procedure: as §1

ALDH3A1 = target: T3, ALDH3A1 (Homo sapiens, UniProt P30838); test: Determination of the Km and Vmax of resorufine propionate with purified ALDH3A1; assay type: biochemical; settings: column ALDH3
T3 construct: purchased R&D Systems 6705-DH
T3 sequence (P30838 1-453): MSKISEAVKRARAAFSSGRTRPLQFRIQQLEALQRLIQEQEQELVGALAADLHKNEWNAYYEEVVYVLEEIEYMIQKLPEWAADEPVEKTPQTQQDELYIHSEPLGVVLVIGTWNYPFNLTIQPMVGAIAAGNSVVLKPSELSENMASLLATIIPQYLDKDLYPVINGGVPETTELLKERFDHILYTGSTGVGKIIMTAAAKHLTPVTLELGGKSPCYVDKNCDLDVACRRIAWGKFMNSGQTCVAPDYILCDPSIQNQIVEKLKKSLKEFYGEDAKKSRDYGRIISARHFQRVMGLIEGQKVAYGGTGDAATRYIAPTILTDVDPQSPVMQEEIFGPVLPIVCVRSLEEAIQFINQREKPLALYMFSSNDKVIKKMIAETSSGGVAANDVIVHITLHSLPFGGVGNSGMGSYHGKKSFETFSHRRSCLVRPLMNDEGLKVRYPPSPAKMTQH
Procedure: as §1

ALDH1A1 [5] = target: T1, ALDH1A1; test: ALDH1 activity by resorufine propionate after treatment with interfering RNA ALDH1A1 (NCI-H522 cells); assay type: cell-based; settings: 100 nM of siRNA, 10 μM resorufin propionate, P<0.05, FIG. 2
Procedure: In a 60 mm Petri dish, the NCI-H522 cells were seeded at a concentration of 250.000 cells/plate, corresponding to a confluence of 40-50%, in RPMI-1640 medium supplemented with L-Glutamine, Penicillin, Streptomycin and 10% Fetal Calf Serum (FCS) overnight at 37° C. The next day, the medium was replaced by the same medium without FCS. The transfection solution was then prepared by diluting 100 nM in 500 μL of culture medium without FCS, to which 500 μL of culture medium without FCS supplemented with 3 μL of lipofectamine 2000 (Invitrogen) was added. The solution was then incubated for 30 minutes at room temperature and then drops added to the cell solution. The mixture was incubated at +37° C. in a 5% CO2 incubator for 8 hours. […] The specific activity of ALDH1A1 was then assayed by fluorescence.
The cells were inoculated at a concentration of 1×10^4 cells/well in a 96-well plate in 100 μl in RPMI-1640 medium without phenol red supplemented with L-Glutamine, Penicillin, Streptomycin and 10% Fetal Calf Serum (FCS) supplemented with 10 μM resorufin propionate. The cells were then incubated for 1 hour and then the plate was read using an Appliskan fluorescent plate reader (ex=560 nm, Em=600). The data were expressed in relative fluorescence units produced by an equal number of cells.

[6] = substrate: CCC(=O)Oc1ccc2nc3ccc(=O)cc-3oc2c1; test: Determination of the Km and Vmax of resorufine propionate with purified ALDH1A1; assay type: biochemical; settings: other: column ALDH1; substrate range 70-250 μM; pH 6.0; 37.0 °C
Procedure: as §1

[7] = substrate: CCC(=O)Oc1ccc2nc3ccc(=O)cc-3oc2c1; test: Determination of the Km and Vmax of resorufine propionate with purified ALDH2; assay type: biochemical; settings: other: column ALDH2; substrate range 70-250 μM; pH 6.0; 37.0 °C
Procedure: as §1

CSC(=O)C#CC(C)(C)N(C)C [DIMATE, dimethyl ampalthiolester]
inhibition of fluorescence (resorufin propionate signal) (ALDH1 [1]): significant inhibition of fluorescence
conversion of resorufin propionate to resorufin, fluorescent microscopy (ALDH1A1 [2]; DIMATE 5 μM, 6 hours): inhibited
positive ALDH1 cells (living cells), flow cytometry (ALDH1 [3]; 10 μM resorufin propionate): positive ALDH1 cell inhibition is observed
viability (ALDH1 [3]; Calcein-AM): decrease in viability

CCCCCCCC(=O)Oc1ccc2c(c1)Oc1cc(OC(=O)CCCCCCC)ccc1C21OC(=O)c2ccccc21 [Fluorescein octanoate, Fluorescein dioctanoate]
melting point: 50 to 52 °C

CCCCCC(=O)Oc1ccc2c(c1)Oc1cc(OC(=O)CCCCC)ccc1C21OC(=O)c2ccccc21 [Fluorescein di-hexanoate]
melting point: 103 to 105 °C

CC1=C(/C=C/C(C)=C/C=C/C(C)=C/C(=O)Oc2ccc3c(c2)Oc2cc(OC(=O)/C=C(C)/C=C/C=C(C)/C=C/C4=C(C)CCCC4(C)C)ccc2C32OC(=O)c3ccccc32)C(C)(C)CCC1 (centres unmarked) [Fluorescein di-retinoate]
melting point: 145 to 150 °C (dec.)

CCC(=O)Oc1ccc2nc3ccc(=O)cc-3oc2c1 [resorufine propionate, Resorufine propionate]
Increase (ALDH1A1 [4]): 1
Increase (ALDH2): 0.54
Increase (ALDH3A1; relative to ALDH1): 0.17
Km (ALDH3A1; substrate range 70-250 μM): 445 µM
signal resorufine propionate after ALDH1A1 siRNA (ALDH1A1 [5]): decrease significant
colocalization of fluorescent signal with ALDH1A1 (ALDH1A1 [2]; 10 μM resorufin propionate, 30 minutes): can be colocalized with ALDH1A1

B1: ALDH1A1 (Homo sapiens) (protein)
chain: T1 sequence (P00352 1-501)
notes: purchased R&D Systems 5869-DH
Km [6]: 115 µM
Vmax [6]: 12132 nM/min/µg

B2: ALDH2 (Homo sapiens) (protein)
chain: T2 sequence (P05091 18-517)
notes: purchased abcam ab87415
Km [7]: 116 µM
Vmax [7]: 6693 nM/min/µg
